Measurements reported in the supplement of paper PMC7840683.
Structures can show the parent of a compound that is named as a salt. ± gives the standard deviation of the averaged measurements.

Test system: HepaRG
Assay: LDH release cytotoxicity, % of total lysis control; higher = more cytotoxic
Conditions: 48 h
Outline: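 Duplicate wells of single-lot HepaRG cells, grown on collagen I-coated 96-well plates, received eight-point half-log series of test chemicals with 100 µM as the top concentration. Exposure lasted 48 h in serum-free induction medium with 0.5% DMSO, while total lysis wells received 0.1% Triton X. Resorufin fluorescence (CytoTox-ONE, Tecan Safire) was used to quantify LDH leaked into 50 µL of spent medium. Values for percent cytotoxicity were normalized to on-plate vehicle and total lysis controls and averaged across the duplicates.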

Row | SMILES | LDH release cytotoxicity (0.03162 µM) [%] | LDH release cytotoxicity (0.1 µM) [%] | LDH release cytotoxicity (0.3162278 µM) [%] | LDH release cytotoxicity (1 µM) [%] | LDH release cytotoxicity (3.16228 µM) [%] | LDH release cytotoxicity (10 µM) [%] | LDH release cytotoxicity (31.6228 µM) [%] | LDH release cytotoxicity (100 µM) [%] | also measured
1 | Sc1nc2ccccc2s1 [2-Mercaptobenzothiazole] | -0.515 ± 0.59 | 0.0327 ± 0.27 | -0.565 ± 1.2 | -0.708 ± 0.47 | 0.4 ± 0.3 | 0.658 ± 0.27 | 1.05 ± 0.11 | 3.61 ± 0.18 | –
2 | CCOP(=S)(OCC)OC(Cl)C(Cl)(Cl)Cl (configuration not stated) [Chlorethoxyfos] | -1.98 ± 0.044 | -1.72 ± 0.32 | -0.757 ± 0.55 | -2.38 ± 0.29 | -1.72 ± 0.38 | -0.842 ± 0.087 | -1.18 ± 0.36 | -1.1 ± 0.44 | –
3 | CCCCOC(=O)C(C)Oc1ccc(Oc2ccc(C(F)(F)F)cn2)cc1 (configuration not stated) [Fluazifop-P-butyl] | – | – | – | – | – | – | – | – | LDH release cytotoxicity (0.0317809 µM): -1.34 ± 1.1%; LDH release cytotoxicity (0.1005 µM): -0.704 ± 2.2%; LDH release cytotoxicity (0.317809 µM): -1.02 ± 2.1%; LDH release cytotoxicity (1.005 µM): -0.805 ± 2.7%; LDH release cytotoxicity (3.17809 µM): -1.3 ± 1.6%; LDH release cytotoxicity (10.05 µM): -0.416 ± 3.4%; LDH release cytotoxicity (31.7809 µM): 0.0852 ± 1.8%; LDH release cytotoxicity (100.5 µM): -0.23 ± 1.1%
4 | CCc1ccc(O)c(C(C)(C)C)c1 [2-tert-Butyl-4-ethylphenol] | -1.09 ± 0.39 | -1.23 ± 0.81 | -1.36 ± 0.88 | -2.09 ± 0.78 | -0.936 ± 0.3 | 0.529 ± 0.44 | -0.602 ± 0.34 | 0.703 ± 0.44 | –
5 | C1CNCCN1 [Piperazine] | -6.9 ± 0.6 | -7.27 ± 0.36 | -6.65 ± 1 | -7.16 ± 1.9 | -6.57 ± 0.29 | -6.04 ± 1.4 | -6.14 ± 0.77 | -6.01 ± 1.2 | –
6 | COc1cnc(OC)n2nc(NS(=O)(=O)c3c(OCC(F)F)cccc3C(F)(F)F)nc12 [Penoxsulam] | -0.317 ± 0.26 | -1.82 ± 0.45 | -1.21 ± 0.65 | -1.71 ± 0.57 | -0.488 ± 0.1 | -0.309 ± 0.71 | -1.02 ± 0.03 | 0.729 ± 0.1 | –
7 | CCCCCCc1ccc(O)cc1O [4-Hexylresorcinol] | -1.87 ± 0.26 | -0.709 ± 0.041 | -0.736 ± 1.1 | -1.64 ± 0.45 | -1.6 ± 1 | -1.36 ± 0.29 | 0.152 ± 0.4 | 1.18 ± 0.84 | –
8 | COc1ccc(S(=O)(=O)N2C(=O)C(c3ccccc3OC)(N3CC(O)CC3C(=O)N(C)C)c3cc(Cl)ccc32)c(OC)c1 (configuration not stated) [Nelivaptan] | -0.817 ± 0.14 | 0.214 ± 1.6 | 0.146 ± 0.67 | -0.447 ± 0.43 | -0.164 ± 0.61 | 0.998 ± 1.2 | -0.141 ± 0.64 | -0.056 ± 0.061 | –
9 | O=C1NC(=O)C(c2ccccc2)(c2ccccc2)N1 [5,5-Diphenylhydantoin] | – | – | – | – | – | – | – | – | LDH release cytotoxicity (0.01581 µM): -5.31 ± 1.9%; LDH release cytotoxicity (0.05 µM): -5.08 ± 1.3%; LDH release cytotoxicity (0.1581139 µM): -5.88 ± 1%; LDH release cytotoxicity (0.5 µM): -6.19 ± 1.8%; LDH release cytotoxicity (1.5811388 µM): -4.95 ± 1.6%; LDH release cytotoxicity (5 µM): 40.5 ± 6.5%; LDH release cytotoxicity (15.8114 µM): 50.1 ± 6.8%; LDH release cytotoxicity (50 µM): 44.7 ± 3.1%
10 | O=C(O)c1cc(Oc2ccc(C(F)(F)F)cc2Cl)ccc1[N+](=O)[O-] [5-(2-Chloro-4-(trifluoromethyl)phenoxy)-2-nitrobenzoic acid] | -0.08 ± 0.59 | -1.4 ± 0.2 | -0.769 ± 0.18 | -1.39 ± 0.35 | -0.738 ± 0.35 | -0.0876 ± 0.044 | 0.334 ± 0.06 | 2.95 ± 0.47 | –
11 | COC1C(OC(=O)NC(=O)CCl)CCC2(CO2)C1C1(C)OC1CC=C(C)C (configuration not stated) [o-(Chloroacetylcarbamoyl)fumagillol] | – | – | – | – | – | – | – | – | LDH release cytotoxicity (0.01012 µM): -1.03 ± 1.5%; LDH release cytotoxicity (0.032 µM): -2.16 ± 1.1%; LDH release cytotoxicity (0.101193 µM): -2.32 ± 0.23%; LDH release cytotoxicity (0.32 µM): -2.5 ± 0.28%; LDH release cytotoxicity (1.01193 µM): -1.78 ± 0.47%; LDH release cytotoxicity (3.2 µM): -1.64 ± 0.6%; LDH release cytotoxicity (10.1193 µM): -0.944 ± 0.11%; LDH release cytotoxicity (32 µM): 0.233 ± 0.59%
12 | O=C(c1ccc(OCCN2CCCCC2)cc1)c1c(-c2ccc(O)cc2)sc2cc(O)ccc12 [Raloxifene hydrochloride] | -1.32 ± 0.65 | -1.13 ± 1.1 | -0.881 ± 0.13 | -1.8 ± 0.23 | -2.08 ± 1.1 | -1.62 ± 0.17 | -1.9 ± 0.18 | 73.39 ± 0.7 | –
13 | N=C1C=NN(c2ccccc2)C(=O)C1Cl (configuration not stated) [Chloridazon] | -1.49 ± 0.4 | -1.35 ± 0.3 | -0.939 ± 0.84 | -1.3 ± 0.23 | -0.697 ± 0.44 | -0.282 ± 0.67 | -0.579 ± 1.3 | 2.76 ± 0.26 | –
14 | Cc1cc(C)nc(Nc2ccccc2)n1 [Pyrimethanil] | -0.263 ± 0.12 | -1.12 ± 0.91 | -0.512 ± 0.19 | -1.63 ± 0.11 | -0.622 ± 0.45 | -0.288 ± 0.51 | 0.157 ± 1.1 | 3.8 ± 1.4 | –
15 | CC(C)=CCCC(C)=CC=O [3,7-Dimethyl-2,6-octadienal] | -1.99 ± 0.53 | -2.58 ± 0.96 | -1.66 ± 0.9 | -2.25 ± 1.7 | -0.875 ± 0.71 | -0.825 ± 1.8 | -0.501 ± 0.3 | 0.215 ± 0.38 | –
16 | Nc1ccc2ccccc2c1 [2-Naphthylamine] | -1.06 ± 0.22 | -1.31 ± 0.37 | -0.801 ± 0.7 | -1.43 ± 0.78 | -1.16 ± 0.89 | -0.463 ± 0.054 | 0.128 ± 0.57 | 0.14 ± 0.74 | –
17 | NC(Cc1cc(I)c(Oc2ccc(O)c(I)c2)c(I)c1)C(=O)O (configuration not stated) [3,5,3'-Triiodothyronine] | – | -3.18 ± 1.4 | – | -4.06 ± 0.7 | -3.84 ± 0.24 | -3.581 ± 0.016 | -2.69 ± 1.4 | 0.489 ± 0.55 | LDH release cytotoxicity (0.031623 µM): -1.22 ± 1.4%; LDH release cytotoxicity (0.316228 µM): -4.73 ± 0.3%
18 | c1ccc2c(c1)oc1ccccc12 [Dibenzofuran] | -0.992 ± 0.24 | -1.07 ± 0.44 | -1.34 ± 0.76 | -1.2 ± 0.83 | -1.19 ± 1 | -0.829 ± 0.93 | -0.8185 ± 0.0015 | 1.45 ± 0.45 | –
19 | COP(=O)(OC)OC(C)=CC(=O)N(C)C [Dicrotophos] | -2.01 ± 0.28 | -1.23 ± 0.051 | -1.47 ± 0.12 | -2.46 ± 0.19 | -1.22 ± 0.6 | -0.345 ± 0.14 | 1.7 ± 0.058 | -0.538 ± 0.6 | –
